In patent US8450357B2, “Compositions comprising an aryl pyrazole and/or a formamidine, methods and uses thereof” (Merial Limited, priority 2008, dated 2013):

Columns and labels:
[1] = Stability of amitraz in solution, aged at 50° C., HPLC; format: physicochemical; details: 28 % (w/v) Amitraz in Methyl isobutyl ketone (MIK)
Description: Formulation comprising amitraz in anisole (formulation L), butyl acetate (formulation M), methyl isobutyl ketone and ethyl benzoate were evaluated for stability by HPLC, similarly to the stability study for formulations comprising compound 1. Thus the formulations were tested for initial concentration of amitraz % (w/v) and aged at 50° C. for three months. The concentration of amitraz in each formulation was determined at 1 month, 2 months and 3 months to determine the stability of amitraz in each formulation.

[2] = tested on: ticks (Rhipicephalus sanguineus); assay: Study B: tick efficacy of Compound 1 spot-on formulations in dogs; format: in vivo
Excerpt: A separate clinical efficacy study in dogs was designed with an untreated control group and 5 test groups treated with compound 1. Each group had six dogs. Test articles were formulated as topical spot-on solutions containing compound 1, 10-20% w/v in a solvent or a combination of solvents as described above. Dogs were infested with approximately 50 ticks (Rhipicephalus sanguineus) on days −1, 7, 14, 21, 28, 35 and 42. Dogs were also infested with approximately 100 fleas (Ctenocephalides felis) on days −1, 8, 15, 22, 29, 36, and 43. Treatment was applied by parting the hair and applying the formulation directly onto the skin on one spot at the midline of the neck, between the base of the skull and the shoulder blades. […] […] It should be noted that Study A and Study B were conducted at different times and locations, and the results of each clinical study may differ from the other based on various environmental factors. Thus, the results of one clinical study should not be compared with those of another due to these factors.

[3] = tested on: fleas (Ctenocephalides felis); assay: Study A: flea efficacy of Compound 1 spot-on formulations in dogs; format: in vivo
Description: An initial clinical study was conducted to test the efficacy of Compound 1 (3-cyano-1-(2-chloro-6-fluoro-4-trifluoromethylphenyl)-4-dichlorofluoromethylsulfinyl-5-methyl-1H-pyrazole) against ticks and fleas in various test formulations. Five test groups and an untreated control were evaluated. Each test group included six dogs. Compound was dissolved in a solvent or a combination of two or more solvents at 10% w/w. Test articles were formulated as topical spot-on solutions containing compound 1, 10% w/v in a solvent or a combination of solvents as described above. Dogs were infested with approximately 50 ticks (Rhipicephalus sanguineus) on days −1, 7, 14, 21, 28, 35 and 42. Dogs were also infested with approximately 100 fleas (Ctenocephalides felis) on days −1, 8, 15, 22, 29, 36, and 43. Treatment was applied by parting the hair and applying the formulation directly onto the skin on one spot at the midline of the neck, between the base of the skull and the shoulder blades. The dose rate of each of the topical solutions was 0.1 ml/kg (10 mg/kg) body weight. The efficacy of compound 1 in various formulations is shown Table 2 below.

Cc1ccc(/N=C/N(C)/C=N/c2ccc(C)cc2C)c(C)c1 [Amitraz, amitraz]
Amitraz % theoretical ([1]; 1 month at 50° C.): 93 % theoretical
Amitraz % theoretical ([1]; 2 months at 50° C.): 98 % theoretical
Amitraz % theoretical ([1]; 3 months at 50° C.): 100 % theoretical

Cc1c([S+]([O-])C(F)(Cl)Cl)c(C#N)nn1-c1c(F)cc(C(F)(F)F)cc1Cl (centres unmarked) [Compound 1, 3-cyano-1-(2-chloro-6-fluoro-4-trifluoromethylphenyl)-4-dichlorofluoromethylsulfinyl-5-methyl-1H-pyrazole]
% Efficacy against ticks ([2]; Day 1, Trt. Group 2: 0.1 ml/kg (10 mg/kg) in Triacetin): 94.8%
% Efficacy against ticks ([2]; Day 1, Trt. Group 3: 0.2 ml/kg (20 mg/kg) in Triacetin): 93.9%
% Efficacy against ticks ([2]; Day 1, Trt. Group 4: 10 mg/kg in Diisopropyl adipate): 95.6%
% Efficacy against ticks ([2]; Day 1, Trt. Group 5: 10 mg/kg in Diethylene glycol monoethyl ether (transcutol)): 87.4%
% Efficacy against ticks ([2]; Day 1, Trt. Group 6: 10 mg/kg in Triacetin/diisopropyl adipate): 94.8%
% Efficacy against ticks ([2]; Day 2, Trt. Group 2: 0.1 ml/kg (10 mg/kg) in Triacetin): 99.6%
% Efficacy against ticks ([2]; Day 2, Trt. Group 3: 0.2 ml/kg (20 mg/kg) in Triacetin): 98.9%
% Efficacy against ticks ([2]; Day 2, Trt. Group 4: 10 mg/kg in Diisopropyl adipate): 98.9%
% Efficacy against ticks ([2]; Day 2, Trt. Group 5: 10 mg/kg in Diethylene glycol monoethyl ether (transcutol)): 98.5%
% Efficacy against ticks ([2]; Day 2, Trt. Group 6: 10 mg/kg in Triacetin/diisopropyl adipate): 99.6%
% Efficacy against ticks ([2]; Day 9, Trt. Group 2: 0.1 ml/kg (10 mg/kg) in Triacetin): 100%
% Efficacy against ticks ([2]; Day 9, Trt. Group 3: 0.2 ml/kg (20 mg/kg) in Triacetin): 100%
% Efficacy against ticks ([2]; Day 9, Trt. Group 4: 10 mg/kg in Diisopropyl adipate): 100%
% Efficacy against ticks ([2]; Day 9, Trt. Group 5: 10 mg/kg in Diethylene glycol monoethyl ether (transcutol)): 100%
% Efficacy against ticks ([2]; Day 9, Trt. Group 6: 10 mg/kg in Triacetin/diisopropyl adipate): 100%
% Efficacy against ticks ([2]; Day 16, Trt. Group 2: 0.1 ml/kg (10 mg/kg) in Triacetin): 100%
% Efficacy against ticks ([2]; Day 16, Trt. Group 3: 0.2 ml/kg (20 mg/kg) in Triacetin): 100%
% Efficacy against ticks ([2]; Day 16, Trt. Group 4: 10 mg/kg in Diisopropyl adipate): 100%
% Efficacy against ticks ([2]; Day 16, Trt. Group 5: 10 mg/kg in Diethylene glycol monoethyl ether (transcutol)): 100%
% Efficacy against ticks ([2]; Day 16, Trt. Group 6: 10 mg/kg in Triacetin/diisopropyl adipate): 100%
% Efficacy against ticks ([2]; Day 23, Trt. Group 2: 0.1 ml/kg (10 mg/kg) in Triacetin): 100%
% Efficacy against ticks ([2]; Day 23, Trt. Group 3: 0.2 ml/kg (20 mg/kg) in Triacetin): 100%
% Efficacy against ticks ([2]; Day 23, Trt. Group 4: 10 mg/kg in Diisopropyl adipate): 99.1%
% Efficacy against ticks ([2]; Day 23, Trt. Group 5: 10 mg/kg in Diethylene glycol monoethyl ether (transcutol)): 100%
% Efficacy against ticks ([2]; Day 23, Trt. Group 6: 10 mg/kg in Triacetin/diisopropyl adipate): 100%
% Efficacy against ticks ([2]; Day 30, Trt. Group 2: 0.1 ml/kg (10 mg/kg) in Triacetin): 98.8%
% Efficacy against ticks ([2]; Day 30, Trt. Group 3: 0.2 ml/kg (20 mg/kg) in Triacetin): 100%
% Efficacy against ticks ([2]; Day 30, Trt. Group 4: 10 mg/kg in Diisopropyl adipate): 99.1%
% Efficacy against ticks ([2]; Day 30, Trt. Group 5: 10 mg/kg in Diethylene glycol monoethyl ether (transcutol)): 98.8%
% Efficacy against ticks ([2]; Day 30, Trt. Group 6: 10 mg/kg in Triacetin/diisopropyl adipate): 98.8%
% Efficacy against ticks ([2]; Day 44, Trt. Group 2: 0.1 ml/kg (10 mg/kg) in Triacetin): 94.5%
% Efficacy against ticks ([2]; Day 44, Trt. Group 3: 0.2 ml/kg (20 mg/kg) in Triacetin): 99.4%
% Efficacy against ticks ([2]; Day 44, Trt. Group 4: 10 mg/kg in Diisopropyl adipate): 93.4%
% Efficacy against ticks ([2]; Day 44, Trt. Group 5: 10 mg/kg in Diethylene glycol monoethyl ether (transcutol)): 98.5%
% Efficacy against ticks ([2]; Day 44, Trt. Group 6: 10 mg/kg in Triacetin/diisopropyl adipate): 96.6%
% Efficacy against ticks ([2]; Day 51, Trt. Group 2: 0.1 ml/kg (10 mg/kg) in Triacetin): 90.8%
% Efficacy against ticks ([2]; Day 51, Trt. Group 3: 0.2 ml/kg (20 mg/kg) in Triacetin): 99.3%
% Efficacy against ticks ([2]; Day 51, Trt. Group 4: 10 mg/kg in Diisopropyl adipate): 87.9%
% Efficacy against ticks ([2]; Day 51, Trt. Group 5: 10 mg/kg in Diethylene glycol monoethyl ether (transcutol)): 98.9%
% Efficacy against ticks ([2]; Day 51, Trt. Group 6: 10 mg/kg in Triacetin/diisopropyl adipate): 91.6%
% Efficacy against ticks ([2]; Day 58, Trt. Group 2: 0.1 ml/kg (10 mg/kg) in Triacetin): 74.6%
% Efficacy against ticks ([2]; Day 58, Trt. Group 3: 0.2 ml/kg (20 mg/kg) in Triacetin): 97.6%
% Efficacy against ticks ([2]; Day 58, Trt. Group 4: 10 mg/kg in Diisopropyl adipate): 89.5%
% Efficacy against ticks ([2]; Day 58, Trt. Group 5: 10 mg/kg in Diethylene glycol monoethyl ether (transcutol)): 94.1%
% Efficacy against ticks ([2]; Day 58, Trt. Group 6: 10 mg/kg in Triacetin/diisopropyl adipate): 88.1%
% Efficacy against fleas ([3]; Day 2, Trt. Group 2: 10 mg/kg in Butyl acetate/octyl acetate): 99.6%
% Efficacy against fleas ([3]; Day 2, Trt. Group 3: 10 mg/kg in Diethylene glycol monoethyl ether (transcutol)/N-methyl-2-pyrrolidone): 96.0%
% Efficacy against fleas ([3]; Day 2, Trt. Group 4: 10 mg/kg in Dipropylene glycol monomethyl ether/butyl acetate): 100%
% Efficacy against fleas ([3]; Day 2, Trt. Group 5: 10 mg/kg in Diisopropyl adipate): 100%
% Efficacy against fleas ([3]; Day 2, Trt. Group 6: 10 mg/kg in Triacetin): 98.0%
% Efficacy against fleas ([3]; Day 9, Trt. Group 2: 10 mg/kg in Butyl acetate/octyl acetate): 100%
% Efficacy against fleas ([3]; Day 9, Trt. Group 3: 10 mg/kg in Diethylene glycol monoethyl ether (transcutol)/N-methyl-2-pyrrolidone): 100%
% Efficacy against fleas ([3]; Day 9, Trt. Group 4: 10 mg/kg in Dipropylene glycol monomethyl ether/butyl acetate): 100%
% Efficacy against fleas ([3]; Day 9, Trt. Group 5: 10 mg/kg in Diisopropyl adipate): 100%
% Efficacy against fleas ([3]; Day 9, Trt. Group 6: 10 mg/kg in Triacetin): 100%
% Efficacy against fleas ([3]; Day 16, Trt. Group 2: 10 mg/kg in Butyl acetate/octyl acetate): 100%
% Efficacy against fleas ([3]; Day 16, Trt. Group 3: 10 mg/kg in Diethylene glycol monoethyl ether (transcutol)/N-methyl-2-pyrrolidone): 99.8%
% Efficacy against fleas ([3]; Day 16, Trt. Group 4: 10 mg/kg in Dipropylene glycol monomethyl ether/butyl acetate): 100%
% Efficacy against fleas ([3]; Day 16, Trt. Group 5: 10 mg/kg in Diisopropyl adipate): 100%
% Efficacy against fleas ([3]; Day 16, Trt. Group 6: 10 mg/kg in Triacetin): 100%
% Efficacy against fleas ([3]; Day 23, Trt. Group 2: 10 mg/kg in Butyl acetate/octyl acetate): 99.4%
% Efficacy against fleas ([3]; Day 23, Trt. Group 3: 10 mg/kg in Diethylene glycol monoethyl ether (transcutol)/N-methyl-2-pyrrolidone): 98.8%
% Efficacy against fleas ([3]; Day 23, Trt. Group 4: 10 mg/kg in Dipropylene glycol monomethyl ether/butyl acetate): 99.5%
% Efficacy against fleas ([3]; Day 23, Trt. Group 5: 10 mg/kg in Diisopropyl adipate): 100%
% Efficacy against fleas ([3]; Day 23, Trt. Group 6: 10 mg/kg in Triacetin): 100%
% Efficacy against fleas ([3]; Day 30, Trt. Group 2: 10 mg/kg in Butyl acetate/octyl acetate): 94.5%
% Efficacy against fleas ([3]; Day 30, Trt. Group 3: 10 mg/kg in Diethylene glycol monoethyl ether (transcutol)/N-methyl-2-pyrrolidone): 91.4%
% Efficacy against fleas ([3]; Day 30, Trt. Group 4: 10 mg/kg in Dipropylene glycol monomethyl ether/butyl acetate): 83.2%
% Efficacy against fleas ([3]; Day 30, Trt. Group 5: 10 mg/kg in Diisopropyl adipate): 92.9%
% Efficacy against fleas ([3]; Day 30, Trt. Group 6: 10 mg/kg in Triacetin): 99.7%
% Efficacy against fleas ([3]; Day 37, Trt. Group 2: 10 mg/kg in Butyl acetate/octyl acetate): 80.4%
% Efficacy against fleas ([3]; Day 37, Trt. Group 3: 10 mg/kg in Diethylene glycol monoethyl ether (transcutol)/N-methyl-2-pyrrolidone): 85.3%
% Efficacy against fleas ([3]; Day 37, Trt. Group 4: 10 mg/kg in Dipropylene glycol monomethyl ether/butyl acetate): 76.5%
% Efficacy against fleas ([3]; Day 37, Trt. Group 5: 10 mg/kg in Diisopropyl adipate): 69.1%
% Efficacy against fleas ([3]; Day 37, Trt. Group 6: 10 mg/kg in Triacetin): 98.9%
% Efficacy against fleas ([3]; Day 44, Trt. Group 2: 10 mg/kg in Butyl acetate/octyl acetate): 46.9%
% Efficacy against fleas ([3]; Day 44, Trt. Group 3: 10 mg/kg in Diethylene glycol monoethyl ether (transcutol)/N-methyl-2-pyrrolidone): 38.9%
% Efficacy against fleas ([3]; Day 44, Trt. Group 4: 10 mg/kg in Dipropylene glycol monomethyl ether/butyl acetate): 31.1%
% Efficacy against fleas ([3]; Day 44, Trt. Group 5: 10 mg/kg in Diisopropyl adipate): 40.3%
% Efficacy against fleas ([3]; Day 44, Trt. Group 6: 10 mg/kg in Triacetin): 93.0%
